Test results: article PMC9851200, “Multiparameter phenotypic screening for endogenous TFEB and TFE3 translocation identifies novel chemical series modulating lysosome function” (Autophagy, 2022)
Like-named read-outs stand apart in the source and are kept apart here.

Experiments:
Assay type in all cases: binding
[1] = molecular target: kinases (KINOMEscan panel) (Homo sapiens, UniProt P42336, C420R); conditions: PIK3CA(C420R); NEW KINOMEscan
[2] = molecular target: T1, kinases (KINOMEscan panel) (Homo sapiens, UniProt P54760); conditions: EPHB4; NEW KINOMEscan
T1 sequence (P54760 16-987): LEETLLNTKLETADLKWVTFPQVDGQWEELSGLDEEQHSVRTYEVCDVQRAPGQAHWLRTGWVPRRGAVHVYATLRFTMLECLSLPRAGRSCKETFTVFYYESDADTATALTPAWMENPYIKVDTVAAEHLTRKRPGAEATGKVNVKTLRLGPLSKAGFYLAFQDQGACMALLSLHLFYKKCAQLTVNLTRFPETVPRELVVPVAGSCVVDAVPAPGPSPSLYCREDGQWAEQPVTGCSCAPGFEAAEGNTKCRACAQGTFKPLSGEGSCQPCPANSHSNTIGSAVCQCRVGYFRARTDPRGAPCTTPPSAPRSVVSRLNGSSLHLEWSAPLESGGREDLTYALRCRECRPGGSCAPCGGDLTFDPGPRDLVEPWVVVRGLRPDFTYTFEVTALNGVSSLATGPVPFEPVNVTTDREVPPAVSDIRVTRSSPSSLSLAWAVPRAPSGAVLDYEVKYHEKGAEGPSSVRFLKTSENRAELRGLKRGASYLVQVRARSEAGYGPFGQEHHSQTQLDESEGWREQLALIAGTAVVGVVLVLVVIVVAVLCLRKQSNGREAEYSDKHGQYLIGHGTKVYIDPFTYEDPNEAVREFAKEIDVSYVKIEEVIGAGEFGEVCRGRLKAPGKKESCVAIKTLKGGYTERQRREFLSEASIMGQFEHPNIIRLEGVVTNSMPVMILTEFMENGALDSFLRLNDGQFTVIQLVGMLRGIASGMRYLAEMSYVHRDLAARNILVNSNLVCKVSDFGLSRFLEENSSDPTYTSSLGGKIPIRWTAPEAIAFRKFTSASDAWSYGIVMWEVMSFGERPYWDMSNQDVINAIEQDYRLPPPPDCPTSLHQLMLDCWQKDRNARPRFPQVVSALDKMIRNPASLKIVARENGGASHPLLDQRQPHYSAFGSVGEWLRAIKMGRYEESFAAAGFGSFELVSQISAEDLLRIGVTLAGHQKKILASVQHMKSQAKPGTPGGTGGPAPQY

[3] = molecular target: T2, kinases (KINOMEscan panel) (Homo sapiens, UniProt Q9H2K8); conditions: kinase TAOK3; NEW KINOMEscan
T2 sequence (Q9H2K8 1-898): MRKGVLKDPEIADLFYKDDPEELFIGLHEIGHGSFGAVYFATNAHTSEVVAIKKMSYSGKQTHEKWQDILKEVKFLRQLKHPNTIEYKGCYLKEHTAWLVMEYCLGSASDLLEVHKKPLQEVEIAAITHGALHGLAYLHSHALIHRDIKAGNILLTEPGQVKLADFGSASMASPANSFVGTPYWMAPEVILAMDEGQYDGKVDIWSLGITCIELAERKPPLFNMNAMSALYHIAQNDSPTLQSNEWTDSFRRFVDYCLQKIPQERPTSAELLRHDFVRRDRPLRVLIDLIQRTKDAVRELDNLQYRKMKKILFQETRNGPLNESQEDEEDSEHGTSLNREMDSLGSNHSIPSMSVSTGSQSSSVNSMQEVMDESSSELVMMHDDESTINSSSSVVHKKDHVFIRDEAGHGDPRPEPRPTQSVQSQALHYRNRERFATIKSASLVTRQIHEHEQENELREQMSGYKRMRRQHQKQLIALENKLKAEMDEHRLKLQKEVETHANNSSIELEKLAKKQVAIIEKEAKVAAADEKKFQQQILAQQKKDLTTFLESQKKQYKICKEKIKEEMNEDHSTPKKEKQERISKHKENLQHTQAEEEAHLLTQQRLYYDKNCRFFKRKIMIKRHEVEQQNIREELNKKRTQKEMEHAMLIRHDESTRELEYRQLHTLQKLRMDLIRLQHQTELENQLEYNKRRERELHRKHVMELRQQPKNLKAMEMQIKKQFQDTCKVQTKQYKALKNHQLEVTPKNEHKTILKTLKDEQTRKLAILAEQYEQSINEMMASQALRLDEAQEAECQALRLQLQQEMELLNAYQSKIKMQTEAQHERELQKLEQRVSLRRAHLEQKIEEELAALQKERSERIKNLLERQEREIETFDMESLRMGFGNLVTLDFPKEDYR

[4] = molecular target: T3, kinases (KINOMEscan panel) (Homo sapiens, UniProt Q9BRS2); conditions: RIOK1; NEW KINOMEscan
T3 sequence (Q9BRS2 1-568): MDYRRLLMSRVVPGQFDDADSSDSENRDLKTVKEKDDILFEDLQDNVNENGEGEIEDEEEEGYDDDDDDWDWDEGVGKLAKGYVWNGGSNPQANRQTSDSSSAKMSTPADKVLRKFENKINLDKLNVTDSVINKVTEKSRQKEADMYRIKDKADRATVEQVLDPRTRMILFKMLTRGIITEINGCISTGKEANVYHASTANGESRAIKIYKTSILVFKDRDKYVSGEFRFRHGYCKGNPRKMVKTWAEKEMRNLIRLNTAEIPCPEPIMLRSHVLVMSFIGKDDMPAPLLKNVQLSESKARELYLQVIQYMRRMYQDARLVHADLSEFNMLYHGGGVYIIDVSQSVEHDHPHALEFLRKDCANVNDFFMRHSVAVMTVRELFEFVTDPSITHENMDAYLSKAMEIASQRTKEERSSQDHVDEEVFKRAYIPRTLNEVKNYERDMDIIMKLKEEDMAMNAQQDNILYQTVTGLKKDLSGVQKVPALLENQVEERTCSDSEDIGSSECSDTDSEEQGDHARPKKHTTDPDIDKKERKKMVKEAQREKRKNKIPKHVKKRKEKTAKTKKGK

[5] = test system: kinases (KINOMEscan panel); conditions: NEW KINOMEscan; for KINOMEscan EGFR(L747-E749del, A750P): kinase EGFR(L747-E749del, A750P); for KINOMEscan EGFR(L747-T751del,Sins): kinase EGFR(L747-T751del,Sins); for KINOMEscan FLT3(ITD): kinase FLT3(ITD)

kinases (KINOMEscan panel) (Homo sapiens, UniProt P42336, C420R), sequence (P42336 whole entry C420R): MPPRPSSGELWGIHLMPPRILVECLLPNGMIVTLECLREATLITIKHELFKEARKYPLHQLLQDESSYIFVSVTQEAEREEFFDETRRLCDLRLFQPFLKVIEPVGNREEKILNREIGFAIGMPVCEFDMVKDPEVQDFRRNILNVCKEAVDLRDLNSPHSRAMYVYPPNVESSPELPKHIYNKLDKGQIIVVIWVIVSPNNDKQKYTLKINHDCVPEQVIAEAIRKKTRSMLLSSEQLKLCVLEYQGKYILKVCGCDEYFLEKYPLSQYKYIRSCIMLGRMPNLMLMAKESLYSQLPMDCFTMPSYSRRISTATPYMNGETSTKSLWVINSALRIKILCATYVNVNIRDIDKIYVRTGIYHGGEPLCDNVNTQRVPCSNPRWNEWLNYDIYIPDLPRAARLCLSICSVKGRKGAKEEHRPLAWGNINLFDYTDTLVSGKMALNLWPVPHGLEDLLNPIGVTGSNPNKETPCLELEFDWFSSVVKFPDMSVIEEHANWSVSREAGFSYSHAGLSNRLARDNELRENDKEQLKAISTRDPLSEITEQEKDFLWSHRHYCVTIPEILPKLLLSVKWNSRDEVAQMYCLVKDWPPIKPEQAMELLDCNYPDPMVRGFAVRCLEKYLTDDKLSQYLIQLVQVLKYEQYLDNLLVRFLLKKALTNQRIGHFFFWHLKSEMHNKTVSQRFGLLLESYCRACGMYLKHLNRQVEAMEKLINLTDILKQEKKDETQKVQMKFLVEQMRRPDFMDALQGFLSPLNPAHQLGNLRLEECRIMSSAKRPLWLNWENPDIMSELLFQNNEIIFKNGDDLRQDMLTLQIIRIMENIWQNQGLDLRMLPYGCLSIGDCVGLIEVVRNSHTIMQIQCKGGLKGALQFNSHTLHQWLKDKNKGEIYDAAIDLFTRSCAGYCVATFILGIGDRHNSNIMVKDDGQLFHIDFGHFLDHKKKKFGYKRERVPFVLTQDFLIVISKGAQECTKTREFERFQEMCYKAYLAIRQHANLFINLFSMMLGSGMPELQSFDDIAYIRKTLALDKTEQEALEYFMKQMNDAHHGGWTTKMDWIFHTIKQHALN

Q: For `Cc1cccc(-c2nc(Nc3ccc4nn(C)cc4c3)c3ccccc3n2)n1` [NK167], which “KINOMEscan PIK3CA(C420R)” value [1] is on record?
A: The value was 0.

Q: And the “KINOMEscan EPHB4” value [2]?
A: Its value is 0.

Q: And the “KINOMEscan TAOK3” value [3]?
A: The value was 4.

Q: What about the “KINOMEscan RIOK1” value [4] of the same compound?
A: The value was 1.

Q: What about the “KINOMEscan EGFR(L747-S752del, P753S)” value [5] of the same compound?
A: The value was 0.

Q: What about the “KINOMEscan FLT3(ITD,D835V)” value [5] of the same compound?
A: The value was 7.

Q: What about the “KINOMEscan FLT3(ITD,F691L)” value [5] of the same compound?
A: The value was 33.

Q: What about the “KINOMEscan PRKAA2” value [5] of the same compound?
A: Its value is 11.

Q: And the “KINOMEscan EGFR(L747-E749del, A750P)” value [5]?
A: Its value is 0.

Q: And the “KINOMEscan EGFR(L747-T751del,Sins)” value [5]?
A: Its value is 0.

Q: And the “KINOMEscan FLT3(ITD)” value [5]?
A: Its value is 0.

Q: And the “KINOMEscan PRKAA2” value ([5]; kinase PRKAA2)?
A: The value was 0.

Q: For `Cc1cccc(-c2nc(N(C)c3ccc4ncsc4c3)c3ccccc3n2)n1` [NK-161], which “KINOMEscan PIK3CA(C420R)” value [1] is on record?
A: The value was 0.

Q: What about the “KINOMEscan EPHB4” value [2] of the same compound?
A: The value was 0.

Q: What about the “KINOMEscan TAOK3” value [3] of the same compound?
A: The value was 13.

Q: And the “KINOMEscan RIOK1” value [4]?
A: Its value is 0.

Q: What about the “KINOMEscan EGFR(L747-S752del, P753S)” value [5] of the same compound?
A: The value was 19.

Q: What about the “KINOMEscan FLT3(ITD,D835V)” value [5] of the same compound?
A: The value was 25.

Q: And the “KINOMEscan FLT3(ITD,F691L)” value [5]?
A: The value was 25.

Q: And the “KINOMEscan PRKAA2” value [5]?
A: The value was 20.

Q: And the “KINOMEscan EGFR(L747-E749del, A750P)” value [5]?
A: Its value is 0.

Q: What about the “KINOMEscan EGFR(L747-T751del,Sins)” value [5] of the same compound?
A: Its value is 0.

Q: What about the “KINOMEscan FLT3(ITD)” value [5] of the same compound?
A: Its value is 4.

Q: What about the “KINOMEscan PRKAA2” value ([5]; kinase PRKAA2) of the same compound?
A: Its value is 0.
